Earlier results, collected in US20240091240A1, “TREATMENTS FOR BLOOD-BRAIN BARRIER DYSFUNCTION AND RECURRENT SEIZURES USING NOX/LOX/COX INHIBITORS” (University of Kentucky Research Foundation, priority 2022, published 2024).

Tested on: subjects suffering from seizures
Conditions: dosage of 5 mg/kg and 10 mg/kg

## CC1(C)Cc2c(-c3ccccc3)c(-c3ccc(Cl)cc3)c(CC(=O)O)n2C1 [licofelone]
  brain capillary leakage: reduce brain capillary leakage
